Laboratory results as given in PubChem BioAssay (NCI).
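Step 1: Grow cells in 96-well plates. Step 2: Expose to compound for 48 hours at 5 concentrations. Step 3: Interpolate endpoints linearly; if unreached, use highest concentration. GI50 is the concentration that inhibits growth by half. At the TGI there is no net growth.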

Assays:
Test in all cases: NCI-60 cell line screen, 48 h
RXF 393 renal = system: RXF 393 renal
SNB-19 CNS = system: SNB-19 CNS
HL-60(TB) leukemia = system: HL-60(TB) leukemia
OVCAR-8 ovarian = system: OVCAR-8 ovarian
HCT-15 colon = system: HCT-15 colon
M14 melanoma = system: M14 melanoma
SN12C renal = system: SN12C renal
A549 NSCLC = system: A549 NSCLC
A498 renal = system: A498 renal
SW-620 colon = system: SW-620 colon

| SMILES | GI50 (RXF 393 renal) [nM] | TGI (RXF 393 renal) [µM] | GI50 (SNB-19 CNS) [µM] | TGI (SNB-19 CNS) [µM] | GI50 (HL-60(TB) leukemia) [µM] | TGI (HL-60(TB) leukemia) [µM] | GI50 (OVCAR-8 ovarian) [µM] | TGI (OVCAR-8 ovarian) [µM] | GI50 (HCT-15 colon) [µM] | TGI (HCT-15 colon) [µM] | GI50 (M14 melanoma) [µM] | TGI (M14 melanoma) [µM] | GI50 (SN12C renal) [µM] | TGI (SN12C renal) [µM] | GI50 (A549 NSCLC) [µM] | TGI (A549 NSCLC) [µM] | GI50 (A498 renal) [µM] | TGI (A498 renal) [µM] | GI50 (SW-620 colon) [µM] | TGI (SW-620 colon) [µM] |
| --- | --- | --- | --- | --- | --- | --- | --- | --- | --- | --- | --- | --- | --- | --- | --- | --- | --- | --- | --- | --- |
| c1ccc(COc2ccc(Nc3ncnc4ccc(-c5ccco5)cc34)cc2)cc1 | 3400 | 8.61 | 12.7 | > 25 | 7.03 | 19.2 | 11.3 | > 25 | 4.3 | 12.3 | 7.31 | 19.9 | 8.49 | > 25 | 6.83 | > 25 | 5.39 | > 21.6 | 7.47 | 22.7 |
| CCN=C(N)CSS(=O)(=O)O |  | > 100 |  | > 100 |  | > 100 |  | > 100 |  | > 100 |  | > 100 |  | > 100 |  | > 100 |  | > 100 |  | > 100 |
| CC1(C)OCC(C2OC(On3nnc4ccc(Cl)cc43)C3OC(C)(C)OC23)O1 (stereo not given) |  | > 100 |  | > 100 |  | > 100 |  | > 100 |  | > 100 |  | > 100 |  | > 100 |  | > 100 |  | > 100 |  | > 100 |
| CCN(CC)c1ccc(/C=C/C2=[N+](C)c3ccccc3C2(C)C)cc1 | 750 | 16.5 | 0.326 | 15.4 | 0.0906 | > 100 | 0.442 | > 100 | 3.34 | > 49.4 | 0.581 | 19.5 | 0.342 | 13.8 | 0.518 | > 100 | 1.65 | 12.2 | 0.36 | 19.4 |
| CC(=O)C(CN1CCOCC1)C(c1ccccc1)c1c(O)c2ccccc2oc1=O (stereo not given) |  | > 100 |  | > 100 |  | > 100 |  | > 100 |  | > 100 |  | > 100 |  | > 100 |  | > 100 |  | > 100 |  | > 100 |
| Nc1ccc(C(=O)O)c2[nH]c3ccccc3c(=O)c12 |  | > 100 |  | > 100 |  | > 100 |  | > 100 |  | > 100 |  | > 100 |  | > 100 |  | > 100 |  | > 100 |  | > 100 |
| COc1ccc(Br)c(CCCCC(=O)O)c1 |  | > 100 |  | > 100 |  | > 100 |  | > 100 |  | > 100 |  | > 100 |  | > 100 |  | > 100 |  | > 100 |  | > 100 |
| COC(=O)C1(c2ccc(OC)cc2)NC(c2ccccc2)C2C(=O)N(c3ccc(OC)cc3)C(=O)C21 (stereo not given) |  | > 100 |  | > 100 |  | > 100 |  | > 100 |  | > 100 |  | > 100 |  | > 100 |  | > 100 |  | > 100 |  | > 100 |
